Data reported in PMC10525924, “Engineering and Purification of Microcin C7 Variants Resistant to Trypsin and Analysis of Their Biological Activity” (Antibiotics, 2023).
In brackets after ≈: the same amount, converted by molar mass. Where a SMILES comes first, the peptide text is derived from it.

How the values were obtained:
E. coli K88 = test: microbe, parasite or virus in culture; assay type: cell-based; conditions: agar diffusion; for antimicrobial activity after trypsin treatment, K88 / Diameters of the inhibition zones, Trypsin-Treated Group, K88: supernatant treated with trypsin 50 μg/mL, 37 °C, 3 h; for Diameters of the inhibition zones, Trypsin-Untreated Group, K88: 200 μL fermentation supernatant, 1 × 10^5 CFU/mL, 4 °C 1 h then 37 °C 24 h, chloramphenicol 100 μL of 0.25 μg/mL; for Diameters of the inhibition zones, Trypsin-Untreated Group, K88 / Diameters of the inhibition zones, Trypsin-Treated Group, K88: dash = no zone; for Diameters of the inhibition zones, Trypsin-Treated Group, K88: pH 6.8, 37 °C 24 h
Protocol: (§1) The pH was adjusted to 6.8.
(§2) The fermentation supernatants and pure products were used to characterize the bacteriostatic effects of McC variants by the agar diffusion and microdilution methods. Yej^+rimL^− and E. coli K88 indicator bacteria were applied. The serotype of E. coli K88 was O149:K91, K88ac, a clinically isolated strain, and provided by the College of Veterinary Medicine, China Agricultural University. The indicated bacteria were diluted to 1 × 10^5 CFU/mL and added to plate medium cooled to 50 °C. Two hundred microliters of supernatants were added to each dish, and diffusion was performed at 4 °C for 1 h. After incubation at 37 °C for 24 h, the diameters of the inhibition zones were determined. One hundred microliters of 0.25 μg/mL chloramphenicol was used as a control. The MICs of the pure McC variants were determined by microdilution in a sterilized 96-well microplate. The McC variants were serially diluted 2 times in 96-well microplates with LB medium. The concentrations of the McC variants ranged from 0.125 to 100 µg/mL. Each well was inoculated with 10 μL of overnight bacterial culture at a concentration of 1.0 × 10^5 CFU/mL and incubated at 37 °C for 24 h. A microplate reader was used to automatically observe changes in absorbance at 600 nm in order to monitor bacterial growth. A positive control group (including inoculated medium) and a negative control group (with medium only) were included. The MIC was determined as the lowest concentration of McC variant that inhibited bacterial growth (preventing an increase in the absorbance reading). All tests were performed in triplicate.

[1] = Remaining amount by RP-HPLC after chymotrypsin treatment; assay type: in vitro ADME; conditions: isolated enzyme chymotrypsin; chymotrypsin treated for 3 h; read-out RP-HPLC; Table S2
Protocol: (§3) To test whether the variants were tolerant to trypsin or other digestive enzymes, the amount of the remaining McC and its analogues remaining was determined by RP-HPLC after trypsin, pepsin, and chymotrypsin treated for 3 h (Table S2), and the inhibition zones of trypsin-treated variants were tested using the same method (Table 2).

[2] = Remaining amount by RP-HPLC after pepsin treatment; assay type: in vitro ADME; conditions: isolated enzyme pepsin; pepsin treated for 3 h; read-out RP-HPLC; Table S2
Protocol: as §3

Yej^+rimL^− strain [3] = assay type: cell-based; conditions: HPLC-purified variants; microdilution in LB, 96-well; 0.125 to 100 µg/mL; 1.0 × 10^5 CFU/mL; 37 °C 24 h; absorbance 600 nm; triplicate
Protocol: To accurately characterize the bacteriostatic abilities of the variants, the MICs of the pure McC variants toward the McCsensitive strain Yej^+rimL^− were determined. The MICs of all variants were lower than that of wild-type McC. From smallest to largest MIC, the above five variants were in the following order: R2A, R2T, R2Q, R2S, and R2H. […] Although the diameter of the inhibitory zone of R2M was smaller than those of the above five variants, the bacteriostatic ability of R2M was second only to R2T/R2Q, and the MIC was 50 μg/mL.
as §2

[4] = HPLC retention time according to hydrophobicity; assay type: physicochemical; conditions: chromatographic, C18 5 μm 9.4 × 250 mm; A 0.1% trichloroacetic acid, B 0.1% trichloroacetic acid with 90% acetonitrile; linear 5% B to 50% B; 1 mL/min; 35 °C; 280 nm; varies according to hydrophobicity
Protocol: To find the separation peaks of the variants, wildtype McC and blank control fermentation broth samples were tested by HPLC. The separation peaks with obvious differences (those with retention times of 11 min and 17 min) were purified and the antimicrobial activity was determined. […] Therefore, the molecular weight was further analyzed by mass spectrometry, and the separation peak at approximately 17 min was confirmed to be that of the desired purified McC. Since the mutations in this study involved only one amino acid and had few effects on the properties of the peptides, we predicted that the separation peaks of the variants should fluctuate around approximately 17 min according to their hydrophobicity. […] The purity of the purified variants was determined by HPLC to be greater than 80% (Table 3).
The lyophilized supernatants were dissolved in deionized water, filtered through 0.22 μm aqueous-phase filter membranes, and purified by high-performance liquid chromatography (HPLC, Agilent Technologies Inc., Palo Alto, CA, USA) with C18 column (5 μm 9.4 × 250 mm, Agilent Technologies Inc., Palo Alto, CA, USA). The mobile phase was composed of 0.1% (v/v) trichloroacetic acid (solvent A) and 0.1% (v/v) trichloroacetic acid with 90% (v/v) acetonitrile (solvent B). A linear gradient from 95% A/5% B to 50% A/50% B was used with a flow rate of 1 mL/min, a sample volume of 10 μL, a column temperature of 35 °C, and a detection wavelength of 280 nm. Electrospray ionization mass spectrometry (ESI-MS) was used to compare the McC variant masses with the expected masses. The relationships between the relative abundances and the mass-to-charge ratios (m/z) of the ions were determined to confirm the identities of the experimentally produced McC variants.

Yej^+rimL^− strain [5] = test: organism not typed; assay type: cell-based; conditions: agar diffusion; for bacteriostatic activity after trypsin treatment, Yej^+rimL^− / Diameters of the inhibition zones, Trypsin-Treated Group, Yej^+rimL^−: supernatant treated with trypsin 50 μg/mL, 37 °C, 3 h; for Diameters of the inhibition zones, Trypsin-Untreated Group, Yej^+rimL^−: 200 μL fermentation supernatant, 1 × 10^5 CFU/mL, 4 °C 1 h then 37 °C 24 h, chloramphenicol 100 μL of 0.25 μg/mL; for Diameters of the inhibition zones, Trypsin-Untreated Group, Yej^+rimL^− / Diameters of the inhibition zones, Trypsin-Treated Group, Yej^+rimL^−: dash = no zone; for Diameters of the inhibition zones, Trypsin-Treated Group, Yej^+rimL^−: pH 6.8, 37 °C 24 h
Description: To analyze the antimicrobial ability of the variants, we measured the inhibition zones of all 21 variants by the agar diffusion method. The peptide moiety of McC was recognized by a YejABEf-peptide transporter. The rimL contains an acetyltransferase domain homologous to MccE which can detoxify and provide resistance to McC [17]. The overexpression of the YejABEF gene cluster and rimL gene knockout made the strain hypersensitive to McC. Therefore, the Yej^+rimL^− strain was selected as the sensitive indicator bacterial strain.
as §1, §2

indicator bacteria = conditions: second to seventh codons of mccA replaced; cited from earlier work
Description: The heptapeptide precursor of McC, f-MRTGNAN, is encoded by the first gene in the mcc gene clusters, mccA [11]. Considering its protein nature, it is suitable for gene-based peptide engineering. Kazakov et al. first applied site-directed mutagenesis on the mccA gene, systematically replacing the second to seventh codons of mccA encoding 19 standard amino acids for a total of 114 mutations.

chymotrypsin = test: Remaining amount by RP-HPLC after chymotrypsin treatment; assay type: in vitro ADME; conditions: chymotrypsin (isolated protease); chymotrypsin treated for 3 h; read-out RP-HPLC; Table S2
Protocol: as §3

pepsin = test: Remaining amount by RP-HPLC after pepsin treatment; assay type: in vitro ADME; conditions: pepsin (isolated protease); pepsin treated for 3 h; read-out RP-HPLC; Table S2
Protocol: as §3

| Structure (SMILES) | antimicrobial activity after trypsin treatment, K88 (E. coli K88) | Diameters of the inhibition zones, Trypsin-Untreated Group, K88 (E. coli K88) | Diameters of the inhibition zones, Trypsin-Treated Group, K88 (E. coli K88) | remaining at 3 h [1] | remaining at 3 h [2] | MIC (Yej^+rimL^− strain [3]) | Retention Time [4] | bacteriostatic activity after trypsin treatment, Yej^+rimL^− (Yej^+rimL^− strain [5]) | Diameters of the inhibition zones, Trypsin-Untreated Group, Yej^+rimL^− (Yej^+rimL^− strain [5]) | Diameters of the inhibition zones, Trypsin-Treated Group, Yej^+rimL^− (Yej^+rimL^− strain [5]) | antimicrobial activity of mccA substitution variants (indicator bacteria) | bacteriostatic effect on indicator strain K88 (E. coli K88; fermentation supernatant, not trypsin-treated) | remaining at 3 h (chymotrypsin) | remaining at 3 h (pepsin) |
| --- | --- | --- | --- | --- | --- | --- | --- | --- | --- | --- | --- | --- | --- | --- |
| CSCC[C@H](NC=O)C(=O)N[C@@H](C)C(=O)N[C@H](C(=O)NCC(=O)N[C@@H](CC(N)=O)C(=O)N[C@@H](C)C(=O)N[C@@H](CC(=O)O)C(=O)NP(=O)(OCCCN)OC[C@H]1O[C@@H](n2cnc3c(N)ncnc32)[C@H](O)[C@@H]1O)[C@@H](C)O (stereo partly drawn) [R2A] (HELM PEPTIDE1{[O=C[*:2]].M.A.T.G.N.A.[NCCCOP(=O)(NC(=O)[C@H](CC(=O)O)N[*:1])OC[C@H]1O[C@@H](n2cnc3c(N)ncnc32)[C@H](O)[C@@H]1O]}$$$$V2.0) | retained their antimicrobial activity | 16.53 mm | 11.96 mm | 42.2 ± 0.86% | 92.2 ± 1.04% | 12.5 µg/mL (≈ 11.4 µM) | 17.167 min | exhibited antibacterial effects | 21.82 mm | 19.07 mm | bacteriostatic |  |  |  |
| CSCC[C@H](NC=O)C(=O)N[C@@H](CS)C(=O)N[C@H](C(=O)NCC(=O)N[C@@H](CC(N)=O)C(=O)N[C@@H](C)C(=O)N[C@@H](CC(=O)O)C(=O)NP(=O)(OCCCN)OC[C@H]1O[C@@H](n2cnc3c(N)ncnc32)[C@H](O)[C@@H]1O)[C@@H](C)O (stereo partly drawn) [R2C] (HELM PEPTIDE1{[O=C[*:2]].M.C.T.G.N.A.[NCCCOP(=O)(NC(=O)[C@H](CC(=O)O)N[*:1])OC[C@H]1O[C@@H](n2cnc3c(N)ncnc32)[C@H](O)[C@@H]1O]}$$$$V2.0) |  |  |  |  |  |  |  |  |  |  |  | no bacteriostatic effects | 40.9 ± 1.22% | 82.5 ± 0.98% |
| CSCC[C@H](NC=O)C(=O)N[C@@H](Cc1c[nH]cn1)C(=O)N[C@H](C(=O)NCC(=O)N[C@@H](CC(N)=O)C(=O)N[C@@H](C)C(=O)N[C@@H](CC(=O)O)C(=O)NP(=O)(OCCCN)OC[C@H]1O[C@@H](n2cnc3c(N)ncnc32)[C@H](O)[C@@H]1O)[C@@H](C)O (stereo partly drawn) [R2H] (HELM PEPTIDE1{[O=C[*:2]].M.H.T.G.N.A.[NCCCOP(=O)(NC(=O)[C@H](CC(=O)O)N[*:1])OC[C@H]1O[C@@H](n2cnc3c(N)ncnc32)[C@H](O)[C@@H]1O]}$$$$V2.0) | retained their antimicrobial activity | 15.55 mm | 11.99 mm | 42.7 ± 0.69% | 82.29 ± 0.52% | >100 µg/mL | 16.872 min | exhibited antibacterial effects | 18.39 mm | 15.92 mm | bacteriostatic |  |  |  |
| CSCC[C@H](NC=O)C(=O)N[C@@H](CCSC)C(=O)N[C@H](C(=O)NCC(=O)N[C@@H](CC(N)=O)C(=O)N[C@@H](C)C(=O)N[C@@H](CC(=O)O)C(=O)NP(=O)(OCCCN)OC[C@H]1O[C@@H](n2cnc3c(N)ncnc32)[C@H](O)[C@@H]1O)[C@@H](C)O (stereo partly drawn) [R2M] (HELM PEPTIDE1{[O=C[*:2]].M.M.T.G.N.A.[NCCCOP(=O)(NC(=O)[C@H](CC(=O)O)N[*:1])OC[C@H]1O[C@@H](n2cnc3c(N)ncnc32)[C@H](O)[C@@H]1O]}$$$$V2.0) |  | 12.37 mm |  | 43.8 ± 0.68% | 88.7 ± 0.93% | 50 µg/mL (≈ 43.4 µM) | 19.622 min | exhibited antibacterial effects | 21.57 mm | 14.31 mm | loss of antimicrobial activity |  |  |  |
| CSCC[C@H](NC=O)C(=O)N[C@@H](CO)C(=O)N[C@H](C(=O)NCC(=O)N[C@@H](CC(N)=O)C(=O)N[C@@H](C)C(=O)N[C@@H](CC(=O)O)C(=O)NP(=O)(OCCCN)OC[C@H]1O[C@@H](n2cnc3c(N)ncnc32)[C@H](O)[C@@H]1O)[C@@H](C)O (stereo partly drawn) [R2S] (HELM PEPTIDE1{[O=C[*:2]].M.S.T.G.N.A.[NCCCOP(=O)(NC(=O)[C@H](CC(=O)O)N[*:1])OC[C@H]1O[C@@H](n2cnc3c(N)ncnc32)[C@H](O)[C@@H]1O]}$$$$V2.0) | retained their antimicrobial activity | 13.46 mm | 9.44 mm | 41.3 ± 1.27% | 84.33 ± 0.77% | 100 µg/mL (≈ 90.2 µM) | 17.004 min | exhibited antibacterial effects | 17.35 mm | 16.34 mm | bacteriostatic |  |  |  |
